Assay results published in patent US5166379A, “Synthesis of compounds with biological activity, and methods of use” (Harbor Branch Oceanographic Institution, Inc., priority 1990, dated 1992).
“And” between values parts separate entries of the source, which are not always exact repeats. Equal values may be shown once. Read-outs that look alike come from different tables or passages of the source.

What was measured:
[1] = test system: murine splenocyte suspensions (BALB/c and C57BL/6J mice); test: Mixed Lymphocyte Reaction (MLR); assay type: cell-based
Description: I. Mixed Lymphocyte Reaction
1. Murine splenocyte suspensions were prepared separately from BALB/c and C57BL/6J mice. […] The cell concentrations were adjusted to 2.5×10^6 cells/ml. Aliquots of each cell population were removed to separate tubes, and the remaining two cell suspensions combined to one tube.
(§1) 2. Serial, log10 dilutions of the pure compound were made in absolute ethanol, and 10 μl of each dilution was added to wells of microtiter test plates, and allowed to dry.
3. A volume of 0.2 ml of the combined splenocyte suspensions was added to triplicate test wells. Positive control wells received combined splenocyte suspensions in the absence of the test compounds. Negative control wells consisted of separate (not mixed) splenocyte suspensions cultured in the absence of the test compounds.
4. Plates were incubated in 5% CO2 at 37° C. for 86 hours.
5. A volume of 0.05 ml of ^3 H-thymidine (20 μCi/ml) was added to each well, and the plates were incubated in 5% CO2 at 37° C. for an additional 5 hours.
6. The contents of each well of the microtiter plates were harvested onto glass fiber filter strips, and the resulting filter discs placed in scintillation vials to which 2.0 ml of scintillation fluid was added.
7. The amount of incorporated ^3 H-thymidine was determined by counting the vials in a liquid scintillation counter.
8. Triplicate counts were averaged, and the data reported as a percentage of the positive control.

[2] = Lymphocyte Viability Assay (LCV); assay type: cell-based, murine; conditions: mouse, splenocytes, read-out: % LCV (percentage of positive control)
Description: (§2) II. Lymphocyte Viability Assay
(§3) 1. Compounds were similarly tested in parallel with the MLR to determine their toxic effects on lymphoid cells using the lymphocyte viability assay (LCV).
as §1
(§4) 3. Murine splenocyte suspensions were prepared from BALB/c mice. […] The cell concentrations were adjusted to 2.5×10^6 cells/ml.
(§5) 4. A volume of 0.2 ml of the splenocyte suspension was added to replicate test wells. Positive control wells received splenocyte suspensions in the absence of the test compounds.
(§6) 5. Plates were incubated at 37° C. for 86 hours. At the end of the incubation period, a volume of 75 μl of a 2.0 mg/ml solution of MTT was added to each well, and the plates were returned to the incubator for an additional 5 hours.
(§7) 6. The supernatants from each microwell were then removed, and a volume of 200 μl of isopropanol was added and the contents mixed.
(§8) 7. Values were obtained by comparing the optical densities (determined at 570 and 650 nm) of wells containing the test compounds with those of wells containing cells and medium only (positive control). The results are expressed as a percentage of the positive control.
(§9) 8. Replicate counts were averaged, and the data reported as a percentage of the positive control. An LCV value of less than 60% of the positive control is an indication of cytotoxicity of the test compounds for lymphoid cells.

[3] = test system: graft vs host reaction in CB6F1 mice grafted with BALB/c splenocytes; test: Graft vs. Host (GVHR) in vivo activity
Description: III. Graft vs. Host (GVHR) In Vivo Activity
1. Donor mice (BALB/c) were sacrificed, spleens removed, and spleen cell suspensions prepared in tissue culture medium.
2. The above splenocyte suspension was adjusted to 10.0×10^7 cells/ml.
3. Mice were treated with varying dosages of the test compound. […] Treatment consisted of intraperitoneal injections, daily for 7 days. Dosages were calculated on a mg per kg body weight basis.
4. On day 1 of the first treatment regimen, recipient mice (CB6) were injected intraperitoneally with 0.50 ml (50.0×10^6) of the donor (BALB/c) splenocyte suspension.
5. Controls consisted of the following:
POS--mice receiving BALB/c splenocytes (Positive Control)
SYN--mice receiving CB6 splenocytes (Syngeneic Control)
CYP--mice receiving Cyclophosphamide (100 mg/kg) and BALB/c splenocytes
6. At the end of five days, recipient mice were sacrificed, weighed, and spleens removed and weighed.
7. A spleen index of 1.0 was assigned to the mean spleen weights (adjusted to body weight) of the SYN controls. The spleen index of treated mice was determined by comparing the spleen weights of those mice with that of the […]. […] As a general rule, a spleen index of less than the positive control is indicative of an immunosuppressive (ID) compound.
^a CB6F1 mice (5 mice per group) were grafted with 5 ×
10^7 BALB/c spelnocytes, i.p. on Day 0. Groups were injected, ii.p.,
with drug (or vehicle) on Days 1-6. Positive designates grafted mice
receiving vehicle alone.
^b Number of surviving mice at end of experiment.
(Stimulation Index of Syngeneic group (CB6F1 ->CB6F1) = 100

[4] = test system: lymphoid cells (murine BALB/c splenocytes); test: Lymphocyte Viability Assay (LCV); assay type: cell-based
Description: as §2, §3, §1, §4, §5, §6, §7, §8, §9

[5] = Mus musculus, Splenocyte, 0.05 μg/ml, read-out: % MLR (percentage of positive control)
[6] = Mus musculus, Splenocyte, 0.5 μg/ml, read-out: % MLR (percentage of positive control)
[7] = Mus musculus, Splenocyte, 5.0 μg/ml, read-out: % MLR (percentage of positive control)
[8] = Mus musculus, Splenocyte, 50 μg/ml, read-out: % MLR (percentage of positive control)

SMILES | activity at 0.05 µg/mL [1, 5] [%] | activity at 0.5 µg/mL [1, 6] [%] | activity at 5 µg/mL [1, 7] [%] | activity at 50 µg/mL [1, 8] [%] | viability ([2]; 0.05 μg/ml) [%] | viability ([2]; 0.5 μg/ml) [%] | viability ([2]; 5.0 μg/ml) [%] | viability ([2]; 50 μg/ml) [%] | further results
C#CC(O)CCCCCCC (stereo not shown) [CH3 (CH2)6 CHOHC≡CH] | 117 | 130 | 131 | 108 | 72 | 85 | 70 | 61 | –
C#CC(O)CCCCCCCCCCCCCCCC (stereo not shown) [CH3 (CH2)15 CHOHC≡CH] | 0 | 0 | 0 | 0 | 49 | 22 | 24 | 22 | activity at 0.005 µg/mL ([1]; Mus musculus, Splenocyte, 0.005 μg/ml, read-out: % MLR (percentage of positive control)): 0%; viability ([2]; 0.005 μg/ml): 65%; % Suppression ([3]; 50.0 mg/kg, i.p.): 49%; % Suppression ([3]; 100 mg/kg, i.p.): 0%; % Suppression ([3]; 150.0 mg/kg, i.p.): 4%; % Suppression ([3]; 200 mg/kg, i.p.): 0%
C#CC(O)CCC=CCCCCC (stereo not shown) [CH3 (CH2)4 CH=CHCH2 CH2 CHOHC≡CH] | 137 | 122 | 110 | 50 | 65 | 57 | 45 | 51 | % Suppression ([3]; 50.0 mg/kg, i.p.): 35%; Stim. Index (spleen index) ([3]; 50.0 mg/kg, i.p.): 2.09; % Suppression ([3]; 100 mg/kg, i.p.): 59%; Stim. Index (spleen index) ([3]; 100 mg/kg, i.p.): 1.69; % Suppression ([3]; 150.0 mg/kg, i.p.): 28%; Stim. Index (spleen index) ([3]; 150.0 mg/kg, i.p.): 2.21; % Suppression ([3]; 200 mg/kg, i.p.): 57%; Stim. Index (spleen index) ([3]; 200 mg/kg, i.p.): 1.72; suppression of the GVHR (splenomegaly response), in words ([3]; mouse, in vivo): demonstrated suppressive activity in the GVHR at all dosages tested; toxicity as measured by survival of treated recipients, in words ([3]; mouse, in vivo): no associated toxicity as measured by survival of treated recipients
C#CC(=O)CCCCCCCCCCCCCCCC [CH3 (CH2)15 COC≡CH] | 114 | 7 | 0 | 0 | 91 | 89 | 47 | 34 | –
CCCCCC=CC(O)C#CCCCCCCCC (stereo not shown) [CH3 (CH2)4 CH=CH--CHOH--C≡C--(CH2)7 CH3] | – | – | – | – | – | – | – | – | % MLR (percentage of positive control) ([1]; 0.05 μg/ml): 127%; % MLR (percentage of positive control) ([1]; 0.2 μg/ml): 135%; % MLR (percentage of positive control) ([1]; 0.8 μg/ml): 122%; % MLR (percentage of positive control) ([1]; 3.1 μg/ml): 64%; % MLR (percentage of positive control) ([1]; 12.5 μg/ml): 0%; % MLR (percentage of positive control) ([1]; 50 μg/ml): 0%; % LCV (percentage of positive control) ([4]; 0.05 μg/ml): 128%; % LCV (percentage of positive control) ([4]; 0.2 μg/ml): 119%; % LCV (percentage of positive control) ([4]; 0.8 μg/ml): 105%; % LCV (percentage of positive control) ([4]; 3.1 μg/ml): 86%; % LCV (percentage of positive control) ([4]; 12.5 μg/ml): 28%; % LCV (percentage of positive control) ([4]; 50 μg/ml): 14%
C#CC(O)CCCCCCCCCCCCCCC (stereo not shown) [CH3 (CH2)14 CHOHC≡CH] | 100 | 0 | 0 | 0 | 105 | 47 | 36 | 10 | –
C#CC(O)C=CC=CCCCC (stereo not shown) [CH3 (CH2)3 CH=CH--CH=CH--CHOHC≡CH] | 134 | 0 | 0 | 0 | 103 | 72 | 14 | 29 | –
C#CC(O)CCCC (stereo not shown) [CH3 (CH2)3 CHOHC≡CH] | 89 | 136 | 47 | 0 | 117 | 116 | 0 | 61 | –
O=P1(N(CCCl)CCCl)NCCCO1 (stereo not shown) [Cyclophosphamide, reference compound] | – | – | – | – | – | – | – | – | % Suppression ([3]; 100 mg/kg, i.p.): 160% and 142% and 132%; # Mice (number of surviving mice at end of experiment) ([3]; 100 mg/kg, i.p., 5 mice per group): 5 mice; suppression of the GVHR (splenomegaly response), in words ([3]; mouse, in vivo): displayed the characteristic suppression of the splenomegaly response
C=CC(O)CCCCCCCCCCCCCCCC (stereo not shown) [CH3 (CH2)15 CHOHCH=CH2] | 99 | 74 | 0 | 0 | 80 | 80 | 2 | 5 | –
C#CC(O)C=CCCCCCCCCCCCCCCCC (stereo not shown) [CH3 (CH2)15 CH=CHCOHC≡CH] | – | – | – | – | – | – | – | – | % MLR (percentage of positive control) ([1]; 0.05 μg/ml): 13%; % MLR (percentage of positive control) ([1]; 0.5 μg/ml): 0%; % MLR (percentage of positive control) ([1]; 5.0 μg/ml): 0%; % MLR (percentage of positive control) ([1]; 50 μg/ml): 0%; % LCV (percentage of positive control) ([4]; 0.05 μg/ml): 78%; % LCV (percentage of positive control) ([4]; 0.5 μg/ml): 78%; % LCV (percentage of positive control) ([4]; 5.0 μg/ml): 17%; % LCV (percentage of positive control) ([4]; 50 μg/ml): 13%
